Results taken from the supplement of paper PMC10307832.

Tests used:
Assay in all cases: relative viability (nuclei count vs DMSO), 5 days (fraction); higher = more cells survive
ChaGo-K-1 = tested on: ChaGo-K-1
In short: (§1)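 Relative viability divides the nuclei count in treated wells by that in vehicle wells. Lung cancer cell lines were seeded in 1536-well plates, dosed by pin tool the next day, and fixed and stained after 5 days in one step with final 0.05% Triton X-100, 1% formaldehyde and 1 ug/ml Hoechst. Dosing was a single drug or a fixed anchor-drug dose plus five library-drug doses (not always all listed) in √10 steps, and values are medians of duplicate plates imaged at 4×.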

HCC-78 = tested on: HCC-78
In short: as §1

HCC-827 = tested on: HCC-827
In short: as §1

LCLC-97TM1 = tested on: LCLC-97TM1
In short: as §1

LK-2 = tested on: LK-2
In short: as §1

LOU-NH91 = tested on: LOU-NH91
In short: as §1

NCI-H1355 = tested on: NCI-H1355
In short: as §1

NCI-H1395 = tested on: NCI-H1395
In short: as §1

NCI-H1755 = tested on: NCI-H1755
In short: as §1

NCI-H1792 = tested on: NCI-H1792
In short: as §1

NCI-H1993 = tested on: NCI-H1993
In short: as §1

NCI-H2085 = tested on: NCI-H2085
In short: as §1

NCI-H2342 = tested on: NCI-H2342
In short: as §1

NCI-H2405 = tested on: NCI-H2405
In short: as §1

NCI-H441 = tested on: NCI-H441
In short: as §1

NCI-H522 = tested on: NCI-H522
In short: as §1

NCI-H647 = tested on: NCI-H647
In short: as §1

PC-3 [JPC-3] = tested on: PC-3 [JPC-3]
In short: as §1

NCI-H2009 = tested on: NCI-H2009
In short: as §1

NCI-H520 = tested on: NCI-H520
In short: as §1

NCI-H661 = tested on: NCI-H661
In short: as §1

SK-MES-1 = tested on: SK-MES-1
In short: as §1

SMILES: Oc1nc(-c2ccc(C(F)(F)F)cc2)nc2c1CSCC2 [XAV939] + NC(=O)Nc1cc(-c2cccc(F)c2)sc1C(=O)N[C@H]1CCCNC1 [AZD7762] (partner 0.2 µM)
- relative viability (ChaGo-K-1; first compound 0.08 µM): 0.904
- relative viability (ChaGo-K-1; first compound 0.253 µM): 0.686
- relative viability (ChaGo-K-1; first compound 0.8 µM): 0.717
- relative viability (ChaGo-K-1; first compound 2.53 µM): 0.754
- relative viability (HCC-78; first compound 0.08 µM): 0.595
- relative viability (HCC-78; first compound 0.253 µM): 0.514
- relative viability (HCC-78; first compound 0.8 µM): 0.648
- relative viability (HCC-78; first compound 2.53 µM): 0.527
- relative viability (HCC-827; first compound 0.08 µM): 0.228
- relative viability (HCC-827; first compound 0.253 µM): 0.195
- relative viability (HCC-827; first compound 0.8 µM): 0.213
- relative viability (HCC-827; first compound 2.53 µM): 0.177
- relative viability (LCLC-97TM1; first compound 0.08 µM): 0.446
- relative viability (LCLC-97TM1; first compound 0.8 µM): 0.208
- relative viability (LCLC-97TM1; first compound 2.53 µM): 0.172
- relative viability (LK-2; first compound 0.08 µM): 0.375
- relative viability (LK-2; first compound 0.253 µM): 0.429
- relative viability (LK-2; first compound 0.8 µM): 0.344
- relative viability (LK-2; first compound 2.53 µM): 0.238
- relative viability (LOU-NH91; first compound 0.08 µM): 0.762
- relative viability (LOU-NH91; first compound 0.253 µM): 0.681
- relative viability (LOU-NH91; first compound 0.8 µM): 0.687
- relative viability (LOU-NH91; first compound 2.53 µM): 0.692
- relative viability (NCI-H1355; first compound 0.08 µM): 0.728
- relative viability (NCI-H1355; first compound 0.253 µM): 0.613
- relative viability (NCI-H1355; first compound 0.8 µM): 0.626
- relative viability (NCI-H1355; first compound 2.53 µM): 0.561
- relative viability (NCI-H1395; first compound 0.08 µM): 0.389
- relative viability (NCI-H1395; first compound 0.253 µM): 0.384
- relative viability (NCI-H1395; first compound 0.8 µM): 0.377
- relative viability (NCI-H1395; first compound 2.53 µM): 0.366
- relative viability (NCI-H1755; first compound 0.08 µM): 0.394
- relative viability (NCI-H1755; first compound 0.253 µM): 0.501
- relative viability (NCI-H1755; first compound 0.8 µM): 0.443
- relative viability (NCI-H1755; first compound 2.53 µM): 0.458
- relative viability (NCI-H1792; first compound 0.08 µM): 0.823
- relative viability (NCI-H1792; first compound 0.253 µM): 0.595
- relative viability (NCI-H1792; first compound 0.8 µM): 0.636
- relative viability (NCI-H1792; first compound 2.53 µM): 0.591
- relative viability (NCI-H1993; first compound 0.08 µM): 0.923
- relative viability (NCI-H1993; first compound 0.253 µM): 0.569
- relative viability (NCI-H1993; first compound 0.8 µM): 0.62
- relative viability (NCI-H1993; first compound 2.53 µM): 0.653
- relative viability (NCI-H2085; first compound 0.08 µM): 1.07
- relative viability (NCI-H2085; first compound 0.253 µM): 0.876
- relative viability (NCI-H2085; first compound 0.8 µM): 0.896
- relative viability (NCI-H2085; first compound 2.53 µM): 0.881
- relative viability (NCI-H2342; first compound 0.08 µM): 0.425
- relative viability (NCI-H2342; first compound 0.253 µM): 0.443
- relative viability (NCI-H2342; first compound 0.8 µM): 0.401
- relative viability (NCI-H2342; first compound 2.53 µM): 0.345
- relative viability (NCI-H2405; first compound 0.08 µM): 0.701
- relative viability (NCI-H2405; first compound 0.253 µM): 0.731
- relative viability (NCI-H2405; first compound 0.8 µM): 0.672
- relative viability (NCI-H2405; first compound 2.53 µM): 0.569
- relative viability (NCI-H441; first compound 0.08 µM): 1.08
- relative viability (NCI-H441; first compound 0.253 µM): 0.947
- relative viability (NCI-H441; first compound 0.8 µM): 1.27
- relative viability (NCI-H441; first compound 2.53 µM): 1.27
- relative viability (NCI-H522; first compound 0.08 µM): 0.914
- relative viability (NCI-H522; first compound 0.253 µM): 0.797
- relative viability (NCI-H522; first compound 0.8 µM): 0.825
- relative viability (NCI-H522; first compound 2.53 µM): 0.819
- relative viability (NCI-H647; first compound 0.08 µM): 0.489
- relative viability (NCI-H647; first compound 0.253 µM): 0.351
- relative viability (NCI-H647; first compound 0.8 µM): 0.319
- relative viability (NCI-H647; first compound 2.53 µM): 0.412
- relative viability (PC-3 [JPC-3]; first compound 0.253 µM): 0.691
- relative viability (PC-3 [JPC-3]; first compound 0.8 µM): 0.753
- relative viability (PC-3 [JPC-3]; first compound 2.53 µM): 0.801

SMILES: Oc1nc(-c2ccc(C(F)(F)F)cc2)nc2c1CSCC2 [XAV939] + Nc1ncn([C@H]2C[C@H](O)[C@@H](CO)O2)c(=O)n1 [Decitabine] (partner 2 µM)
- relative viability (ChaGo-K-1; first compound 0.08 µM): 0.495
- relative viability (ChaGo-K-1; first compound 0.253 µM): 0.505
- relative viability (ChaGo-K-1; first compound 0.8 µM): 0.507
- relative viability (ChaGo-K-1; first compound 2.53 µM): 0.494
- relative viability (HCC-78; first compound 0.08 µM): 0.679
- relative viability (HCC-78; first compound 0.253 µM): 0.655
- relative viability (HCC-78; first compound 0.8 µM): 0.732
- relative viability (HCC-78; first compound 2.53 µM): 0.642
- relative viability (HCC-827; first compound 0.08 µM): 0.327
- relative viability (HCC-827; first compound 0.253 µM): 0.269
- relative viability (HCC-827; first compound 0.8 µM): 0.321
- relative viability (HCC-827; first compound 2.53 µM): 0.254
- relative viability (LCLC-97TM1; first compound 0.08 µM): 0.211
- relative viability (LCLC-97TM1; first compound 0.253 µM): 0.245
- relative viability (LCLC-97TM1; first compound 2.53 µM): 0.21
- relative viability (LK-2; first compound 0.08 µM): 0.263
- relative viability (LK-2; first compound 0.253 µM): 0.322
- relative viability (LK-2; first compound 0.8 µM): 0.318
- relative viability (LK-2; first compound 2.53 µM): 0.189
- relative viability (LOU-NH91; first compound 0.08 µM): 0.806
- relative viability (LOU-NH91; first compound 0.253 µM): 0.75
- relative viability (LOU-NH91; first compound 0.8 µM): 0.819
- relative viability (LOU-NH91; first compound 2.53 µM): 0.801
- relative viability (NCI-H1355; first compound 0.08 µM): 0.357
- relative viability (NCI-H1355; first compound 0.253 µM): 0.309
- relative viability (NCI-H1355; first compound 0.8 µM): 0.393
- relative viability (NCI-H1355; first compound 2.53 µM): 0.298
- relative viability (NCI-H1395; first compound 0.08 µM): 0.77
- relative viability (NCI-H1395; first compound 0.253 µM): 0.683
- relative viability (NCI-H1395; first compound 0.8 µM): 0.795
- relative viability (NCI-H1395; first compound 2.53 µM): 0.688
- relative viability (NCI-H1755; first compound 0.08 µM): 0.693
- relative viability (NCI-H1755; first compound 0.253 µM): 0.677
- relative viability (NCI-H1755; first compound 0.8 µM): 0.72
- relative viability (NCI-H1755; first compound 2.53 µM): 0.691
- relative viability (NCI-H1792; first compound 0.08 µM): 0.604
- relative viability (NCI-H1792; first compound 0.253 µM): 0.485
- relative viability (NCI-H1792; first compound 0.8 µM): 0.503
- relative viability (NCI-H1792; first compound 2.53 µM): 0.42
- relative viability (NCI-H1993; first compound 0.08 µM): 0.527
- relative viability (NCI-H1993; first compound 0.253 µM): 0.224
- relative viability (NCI-H1993; first compound 0.8 µM): 0.567
- relative viability (NCI-H1993; first compound 2.53 µM): 0.467
- relative viability (NCI-H2009; first compound 0.08 µM): 0.515
- relative viability (NCI-H2009; first compound 0.253 µM): 0.359
- relative viability (NCI-H2009; first compound 0.8 µM): 0.405
- relative viability (NCI-H2009; first compound 2.53 µM): 0.336
- relative viability (NCI-H2085; first compound 0.08 µM): 0.536
- relative viability (NCI-H2085; first compound 0.253 µM): 0.494
- relative viability (NCI-H2085; first compound 0.8 µM): 0.537
- relative viability (NCI-H2085; first compound 2.53 µM): 0.462
- relative viability (NCI-H2342; first compound 0.08 µM): 0.832
- relative viability (NCI-H2342; first compound 0.253 µM): 0.669
- relative viability (NCI-H2342; first compound 0.8 µM): 0.72
- relative viability (NCI-H2342; first compound 2.53 µM): 0.427
- relative viability (NCI-H2405; first compound 0.08 µM): 0.776
- relative viability (NCI-H2405; first compound 0.253 µM): 0.721
- relative viability (NCI-H2405; first compound 0.8 µM): 0.709
- relative viability (NCI-H2405; first compound 2.53 µM): 0.689
- relative viability (NCI-H441; first compound 0.08 µM): 0.25
- relative viability (NCI-H441; first compound 0.253 µM): 0.253
- relative viability (NCI-H441; first compound 0.8 µM): 0.232
- relative viability (NCI-H441; first compound 2.53 µM): 0.251
- relative viability (NCI-H520; first compound 0.08 µM): 0.54
- relative viability (NCI-H520; first compound 0.8 µM): 0.457
- relative viability (NCI-H520; first compound 2.53 µM): 0.495
- relative viability (NCI-H522; first compound 0.08 µM): 0.629
- relative viability (NCI-H522; first compound 0.253 µM): 0.576
- relative viability (NCI-H522; first compound 0.8 µM): 0.723
- relative viability (NCI-H522; first compound 2.53 µM): 0.607
- relative viability (NCI-H647; first compound 0.08 µM): 0.393
- relative viability (NCI-H647; first compound 0.253 µM): 0.26
- relative viability (NCI-H647; first compound 0.8 µM): 0.283
- relative viability (NCI-H647; first compound 2.53 µM): 0.279
- relative viability (NCI-H661; first compound 0.08 µM): 0.542
- relative viability (NCI-H661; first compound 0.253 µM): 0.493
- relative viability (NCI-H661; first compound 0.8 µM): 0.544
- relative viability (NCI-H661; first compound 2.53 µM): 0.509
- relative viability (PC-3 [JPC-3]; first compound 0.253 µM): 0.724
- relative viability (PC-3 [JPC-3]; first compound 0.8 µM): 0.837
- relative viability (PC-3 [JPC-3]; first compound 2.53 µM): 0.784
- relative viability (SK-MES-1; first compound 0.08 µM): 0.359
- relative viability (SK-MES-1; first compound 0.253 µM): 0.342
- relative viability (SK-MES-1; first compound 0.8 µM): 0.358
- relative viability (SK-MES-1; first compound 2.53 µM): 0.381
